One may read the Ki as the dissociation constant of the complex between target and ligand, obtained from inhibition or displacement.

Where only a bound is given, the exact number is not on record here.

One assay has as its target T1, BRD4 (BDI_K57-E168) (Homo sapiens, UniProt O60885).
T1 construct: BD1: amino acids K57-E168; made in house
The experiment in a line: TR-FRET bromodomain binding assay, BRD4 first bromodomain. The settings on record: His-tagged BRD4 BD1, 100 nM Alexa647 probe; Ki calculated from IC50, probe Kd and probe concentration. The protocol:
(§1) A time-resolved fluorescence resonance energy transfer (TR-FRET) assay was used to determine the affinities of compounds of the Examples listed in Table 1 for each bromodomain of BRD4. His-tagged first (BD1: amino acids K57-E168) and second (BD2: amino acids E352-E168) bromodomains of BRD4 were expressed and purified. An Alexa647-labeled BET-inhibitor was used as the fluorescent probe in the assay.
(§2) Compound dilution series were prepared in DMSO via a 3-fold serial dilution from 2.5 mM to 42 nM. Compounds were then diluted 6:100 in assay buffer (20 mM Sodium Phosphate, pH 6.0, 50 mM NaCl, 1 mM Ethylenediaminetetraacetic acid disodium salt dihydrate, 0.01% Triton X-100, 1 mM DL-Dithiothreitol) to yield 3× working solutions. Six microliters (μL) of the working solution was then transferred to white, low-volume assay plates (Costar #3673). A 1.5× assay mixture containing His-tagged bromodomain, Europium-conjugated anti-His antibody (Invitrogen PV5596) and the Alexa-647-conjugated probe molecule was also prepared. Twelve μL of this solution were added to the assay plate to reach a final volume of 18 μL. The final concentration of 1× assay buffer contains 2% DMSO, 50 μM-0.85 nM compound, 8 nM His-tagged bromodomain, 1 nM Europium-conjugated anti-His-tag antibody and 100 nM or 30 nM probe (for BDI or BDII, respectively). After a one-hour incubation at room temperature, TR-FRET ratios were determined using an Envision multilabel plate reader (Ex 340, Em […]).
(§3) TR-FRET data were normalized to the means of 24 no-compound controls (“high”) and 8 controls containing 1 μM un-labeled probe (“low”). […] Inhibition constants (Ki) were calculated from the IC50s, probe Kd and probe concentration. […] The minimum significant ratio was determined to evaluate assay reproducibility (Eastwood et al., (2006) J Biomol Screen, 11: 253-261). The MSR was determined to be 2.03 for BDI and 1.93 for BDII, and a moving MSR (last six run MSR overtime) for both BDI and BDII was typically <3.

In another assay the target is T2, BRD4 (BDII_E352-M457) (Homo sapiens, UniProt O60885).
T2 construct: made in house
The experiment in a line: TR-FRET bromodomain binding assay, BRD4 second bromodomain. To be noted: His-tagged BRD4 BD2, 30 nM Alexa647 probe; Ki calculated from IC50, probe Kd and probe concentration. As for the experimental part: as §1, §2, §3

The test system of assay [1] is breast cancer cell line MX-1. The experiment in a line: MX-1 cell line proliferation assay, Method A. The class given is cell-based. The settings on record: Homo sapiens, MX1; MX-1 cells, 96-well, 72 hours, Cell Titer Glo; read-out: Cellular proliferation: EC50 Method A. Summed up:
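MX-1 breast cancer cells (5000/well) were attached overnight in RPMI 1640 with 10% FBS, then exposed for 3 days to compound at 0.0001–3 μM final. Cell Titer Glo luminescence was normalized to DMSO controls, and EC50s were obtained by sigmoidal fitting.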
(ATP-based viability assays read luminescence as a measure of living cells.)

The test system of assay [2] is breast cancer cell line MX-1. The experiment in a line: MX-1 cell line proliferation assay, Method B. The settings on record: Homo sapiens, MX1; MX-1 cells, 384-well, 72 hours, Cell Titer Glo; read-out: Cellular proliferation: EC50 Method B. The class given is cell-based. The protocol:
The impact of compounds of the Examples on cancer cell proliferation was determined using the breast cancer cell line MX-1 (ATCC) in a 3-day proliferation assay and the data are reported in Table 1.
MX-1 cells were maintained in RPMI 1640 medium (Sigma) supplemented with 10% FBS at 37° C. and an atmosphere of 5% CO2. For compound testing, MX-1 cells were plated in 384-well white with clear, flat bottom plates at a density of 750 cells/well in 25 μL of culture media and incubated at 370 overnight to allow cell adhesion and spreading. Ten point compound dilution series were prepared in DMSO via a 3-fold serial dilution from either 10 μM or 1 μM stock and added directly to the appropriate wells of the MX-1 cell plate by an ECHO liquid handler (Labcyte). The final compound concentrations in the wells were 10, 3.25, 1, 0.25, 0.124, 0.040, 0.0124, 0.0031, 0.0015 and 0.0005 μM or 1, 0.33, 0.1, 0.025, 0.0124, 0.004, 0.0012, 0.0003, 0.00015, 0.00005 μM, depending on the concentration of the compound stock solution.
Luminescence readings from the Cell Titer Glo assay were normalized to the DMSO treated cells and analyzed using Accelrys Assay Explorer 3.3 software with sigmoidal curve fitting to obtain EC50s. The minimum significant ratio (MSR) was determined to evaluate assay reproducibility (Eastwood et al., (2006) J Biomol Screen, 11: 253-261). The overall MSR was determined to be 3.3 and a moving MSR (last six run MSR overtime) has averaged 2.1.

On to `CCS(=O)(=O)c1ccc(OCC2CC2(F)F)c(-c2cn(C)c(=O)c3[nH]c(CN4CCN(c5ncccn5)CC4)cc23)c1` (stereo not shown) [Example 19, 4-{2-[(2,2-difluorocyclopropyl)methoxy]-5-(ethylsulfonyl)phenyl}-6-methyl-2-{[4-(pyrimidin-2-yl)piperazin-1-yl]methyl}-1,6-dihydro-7H-pyrrolo[2,3-c]pyridin-7-one], for which the inhibition constant Ki at BRD4 (BDI_K57-E168) is 6.1 nM; at BRD4 (BDII_E352-M457), 62 nM.

With `COc1ccc(S(=O)(=O)Nc2cccc(Oc3ccc(S(C)(=O)=O)cc3-c3cn(C)c(=O)c4[nH]ccc34)c2)cc1OC` [Example 53, 3,4-dimethoxy-N-{3-[2-(6-methyl-7-oxo-6,7-dihydro-1H-pyrrolo[2,3-c]pyridin-4-yl)-4-(methylsulfonyl)phenoxy]phenyl}benzenesulfonamide], the inhibition constant (Ki) at BRD4 (BDI_K57-E168) was 3.4 nM; at BRD4 (BDII_E352-M457) it was 1 nM. Also, the EC50 in assay [1] turned out to be 144 nM.

As to `Cn1cc(-c2cc(S(C)(=O)=O)ccc2NC2CCN(S(=O)(=O)/C=C/c3ccccc3)CC2)c2cc[nH]c2c1=O` [Example 102, 6-methyl-4-{5-(methylsulfonyl)-2-[(1-{[(E)-2-phenylethenyl]sulfonyl}piperidin-4-yl)amino]phenyl}-1,6-dihydro-7H-pyrrolo[2,3-c]pyridin-7-one], the inhibition constant (Ki) on BRD4 (BDI_K57-E168) was 6 nM; on BRD4 (BDII_E352-M457), 6.8 nM. Further, in assay [1], the EC50 was determined as 67.3 nM.

Turning to `CCNC(=O)c1cc2c(-c3cc(S(=O)(=O)CC)ccc3Oc3c(C)cccc3CN3CCCS3(=O)=O)cn(C)c(=O)c2[nH]1` [Example 152, 4-[2-{2-[(1,1-dioxido-1,2-thiazolidin-2-yl)methyl]-6-methylphenoxy}-5-(ethylsulfonyl)phenyl]-N-ethyl-6-methyl-7-oxo-6,7-dihydro-1H-pyrrolo[2,3-c]pyridine-2-carboxamide], the EC50 in assay [2] is 8140 nM.

Turning to `CCNC(=O)c1cc2c(-c3ccc(C(=O)N(CC(=O)NC)Cc4ccccn4)cc3Oc3c(C)cccc3C)cn(C)c(=O)c2[nH]1` [Example 153, 4-[2-(2,6-dimethylphenoxy)-4-{[2-(methylamino)-2-oxoethyl](pyridin-2-ylmethyl)carbamoyl}phenyl]-N-ethyl-6-methyl-7-oxo-6,7-dihydro-1H-pyrrolo[2,3-c]pyridine-2-carboxamide], in assay [2], the EC50 is over 10000 nM.

For the molecule `Cn1cc(-c2cc(S(C)(=O)=O)ccc2Oc2ccc(F)cc2F)c2cc(CN3CC(n4cncn4)C3)[nH]c2c1=O` [Example 156, 4-[2-(2,4-difluorophenoxy)-5-(methylsulfonyl)phenyl]-6-methyl-2-{[3-(1H-1,2,4-triazol-1-yl)azetidin-1-yl]methyl}-1,6-dihydro-7H-pyrrolo[2,3-c]pyridin-7-one], the EC50 in assay [2] stood at 332 nM.

Regarding `Cn1cc(-c2cc(S(C)(=O)=O)ccc2Oc2ccc(F)cc2F)c2cc(CNCCC(N)=O)[nH]c2c1=O` [Example 159, 3-[({4-[2-(2,4-difluorophenoxy)-5-(methylsulfonyl)phenyl]-6-methyl-7-oxo-6,7-dihydro-1H-pyrrolo[2,3-c]pyridin-2-yl}methyl)amino]propanamide], the EC50 in assay [2] was 599 nM.

For `CCNC(=O)c1cc2c(-c3ccc(C(=O)N(CCCN4CCOCC4)Cc4ccccc4)cc3Oc3c(C)cccc3C)cn(C)c(=O)c2[nH]1` [Example 161, 4-[4-{benzyl[3-(morpholin-4-yl)propyl]carbamoyl}-2-(2,6-dimethylphenoxy)phenyl]-N-ethyl-6-methyl-7-oxo-6,7-dihydro-1H-pyrrolo[2,3-c]pyridine-2-carboxamide], the EC50 in assay [2] came out at 1950 nM.

These data come from patent publication US10131657B2, “Bromodomain inhibitors” (AbbVie Inc., priority 2013, dated 2018).
